Reference: article PMC5505240, “The structure of a complex of the lactonohydrolase zearalenone hydrolase with the hydrolysis product of zearalenone at 1.60 Å resolution” (Acta Crystallographica. Section F, Structural Biology …, 2017)

B1: Zearalenone hydrolase (ZHD), C-terminally His6-tagged (enzyme, Clonostachys rosea)
chain: MDMRTRSTISTPNGITWYYEQEGTGPDIVLVPDGLGECQMFDSSVSQIAAQGFRVTTFDMPGMSRSAKAPAETYTEVTAQKLASYVISILDALDIKHATVWGCSSGASTVVALLLGYPDRIRNAMCHELPTKLLDHLSNTAVLEDEEISNILANVMLNDVSGGSEAWQALGVEVHARLHKNYPVWARGYPRTIPPSAPVQDVEALRGKPLDWTVGAATPTESFFDNIVTATKAGVNIGLLPGMHFPYVSHPDVFAKYVVETTQKHLWNSSSVDKLAAALE
notes: zearalenone hydrolase (ZHD) cloned from genomic DNA of a Clonostachys rosea strain (CGMCC); natural strain variant with eight amino-acid variations compared with GenBank ALI16790.1; 14-amino-acid linker between ZHD and the C-terminal His6 tag; The His6 is written under tags, the linker as a part; The substitutions count against GenBank ALI16790.1, not necessarily against the UniProt entry; also …

How the values were obtained:
[1] = target: T1, ZHD (zearalenone hydrolase) (Clonostachys rosea, UniProt Q8NKB0, V26I/P69A/V87I/K148N/M168L/D170V/K198Q/L200V); assay: HPLC of remaining ZEN; type: biochemical; settings: 100 mM Tris-HCl pH 9.5, 30 °C, 15 nM ZHD, 1-50 µM ZEN
T1 construct: gene zhd101; full length; natural clone from genomic DNA of a CGMCC strain; extra N-terminal MD; E. coli BL21(DE3); dimer

[2] = target: the molecule itself; assay: SEC; HiLoad 16/60 Superdex 200 prep-grade column, last step of the purification; oligomeric state from the elution position

Molecule | Km [1] [µM] | stoichiometry N [2]
C[C@H]1CCCC(=O)CCC/C=C/c2cc(O)cc(O)c2C(=O)O1 [ZEN, zearalenone] | 3.5 | 
B1 |  | 2
